Earlier results as cited in article PMC10815991, “Membrane-Bound Redox Enzyme Cytochrome bd-I Promotes Carbon Monoxide-Resistant Escherichia coli Growth and Respiration” (International Journal of Molecular Sciences, 2024).
Like-named read-outs stand apart in the source and are kept apart here.

Tests used:
cytochrome bd-I heme d2+ = settings: cited from earlier work
cytochrome bo3 = settings: read-out: apparent Km(O2); cited from earlier work
cytochrome bd-II = settings: read-out: apparent Km(O2); cited from earlier work

Row | Compound | koff, NO dissociation from heme d^2+ (cytochrome bd-I heme d2+; ref 69) | koff, NO dissociation from heme d^2+ (cytochrome bd-I heme d2+; ref 70) | Km (cytochrome bo3) | Km (cytochrome bd-II)
1 | nitric oxide [NO] | 0.133 s⁻¹ | 0.163 s⁻¹ | – | –
2 | O=O [O2] | – | – | 6 µM | 2 µM
